ChEMBL document CHEMBL1134487, “Design, synthesis, and biological evaluation of analogues of the antitumor agent, 2-(4-[(7-chloro-2-quinoxalinyl)oxy]phenoxy)propionic acid (XK469)” (2001)
Activity calls are given as the source filed them. No cut-off for these calls is given here.

Assays:
Mus musculus [1] = test: In vivo activity tested against C3H mice bearing panc-03 murine tumor at a dose of 330mg/kg, measured as % treated/control; assay type: functional
Mus musculus [2] = test: In vivo activity tested against C3H mice bearing panc-03 murine tumor at a dose of 330mg/kg, measured as activity rating; assay type: functional
Mus musculus [3] = test: In vivo activity against transplanted Mam-16/C/ Taxol tumors of mice; Not active; assay type: functional, organism-based
Mus musculus [4] = test: In vivo activity against iv transplanted AML Leukemia 1498 tumors of mice; assay type: functional, organism-based
Mus musculus [5] = test: In vivo activity against iv transplanted Leukemia L1210 tumors of mice; assay type: functional, organism-based
Mus musculus [6] = test: In vivo activity against transplanted Mam-16/C tumors of mice; assay type: functional, organism-based
Mus musculus [7] = test: In vivo activity against transplanted Mam-16/C/Adr tumors of mice; assay type: functional, organism-based
Mus musculus [8] = test: In vivo activity against transplanted Mam-17/Adr tumors of mice; assay type: functional, organism-based
Mus musculus [9] = test: In vivo activity against transplanted Panc-02 tumors of mice; assay type: functional, organism-based
Mus musculus [10] = test: In vivo activity against transplanted Panc-03 tumors of mice; assay type: functional, organism-based
Mus musculus [11] = test: In vivo activity against transplanted Squam lung-LC12 tumors of mice; assay type: functional, organism-based
Mus musculus [12] = test: In vivo activity against transplanted colon-26 tumors of mice; assay type: functional, organism-based
Mus musculus [13] = test: In vivo activity against transplanted colon-38 tumors of mice; assay type: functional, organism-based
Mus musculus [14] = test: In vivo activity against transplanted colon-51 tumors of mice; assay type: functional, organism-based
Mus musculus [15] = test: In vivo activity against transplanted Mel-B16 tumors of mice; assay type: functional, organism-based
Mus musculus [16] = test: In vivo activity against transplanted Mam-17 tumors of mice; assay type: functional, organism-based
Mus musculus [17] = test: In vivo activity against transplanted Mam-16/C/ Taxol tumors of mice; assay type: functional, organism-based
Mus musculus [18] = species on record: Mus musculus; test: […] activity against C3H mice bearing panc-03 murine tumor; Inactive; assay type: functional, organism-based
Mus musculus [19] = test: In vivo activity tested against C3H mice bearing mammary adenocarcinoma -17/ADR tumor measured as body weight loss at 1250 mg/kg (po); assay type: functional
Mus musculus [20] = test: In vivo activity tested against C3H mice bearing mammary adenocarcinoma -17/ADR tumor measured as body weight loss at 750 mg/kg (po); assay type: functional
Mus musculus [21] = test: In vivo activity tested against C3H mice bearing mammary adenocarcinoma -17/ADR tumor measured as % treated/control calculated at 1250 mg/kg (po); assay type: functional
Mus musculus [22] = test: In vivo activity tested against C3H mice bearing mammary adenocarcinoma -17/ADR tumor measured as % treated/control calculated at 750 mg/kg (po); assay type: functional
Mus musculus [23] = test: In vivo activity tested against C3H mice bearing mammary adenocarcinoma -17/ADR tumor measured as log Kill value was based on tumors that grew at 750 mg/kg (po); assay type: functional, organism-based; design: dose 750 mg/kg
Mus musculus [24] = test: In vivo activity tested against C3H mice bearing mammary adenocarcinoma -17/ADR tumor measured as log Kill value was based on tumors that grew at 1250 mg/kg (po); assay type: functional, organism-based; design: dose 1250 mg/kg
Mus musculus [25] = test: In vivo antitumor activity against tumor […]; Inactive; assay type: functional, organism-based
Mus musculus [26] = test: In vivo activity tested against C3H mice bearing panc-03 murine tumor measured as % treated/control calculated at 800 mg/kg (po); assay type: functional
Mus musculus [27] = test: In vivo activity tested against C3H mice bearing panc-03 murine tumor measured as body weight loss at 800 mg/kg (po); assay type: functional
Mus musculus [28] = test: In vivo activity tested against C3H mice bearing panc-03 murine tumor measured as log Kill value was based on tumors that grew at 800 mg/kg (po); assay type: functional, organism-based; design: dose 800 mg/kg
Mus musculus [29] = test: In vivo activity tested against C3H mice bearing mammary adenocarcinoma -17/ADR tumor measured as body weight loss at 301 mg/kg (po); assay type: functional
Mus musculus [30] = test: In vivo activity tested against C3H mice bearing mammary adenocarcinoma -17/ADR tumor measured as % treated/control calculated at 301 mg/kg (po); assay type: functional
Mus musculus [31] = test: In vivo activity tested against C3H mice bearing mammary adenocarcinoma -17/ADR tumor measured as activity rating at 301 mg/kg (po); assay type: functional
Mus musculus [32] = test: In vivo activity tested against C3H mice bearing mammary adenocarcinoma -17/ADR tumor measured as log Kill value was based on tumors that grew at 301 mg/kg (po); assay type: functional, organism-based; design: dose 301 mg/kg
Mus musculus [33] = test: In vivo activity against transplanted Mam-16/C/Taxol tumors of mice; assay type: functional, organism-based
Mus musculus [34] = test: In vivo activity against C3H mice bearing panc-03 murine tumor; Inactive; assay type: functional, organism-based

SMILES	Log kill (Mus musculus [4])	Log kill (Mus musculus [5])	Log kill (Mus musculus [6])	Log kill (Mus musculus [7])	Log kill (Mus musculus [8])	Log kill (Mus musculus [9])	Log kill (Mus musculus [10])	Log kill (Mus musculus [11])	Log kill (Mus musculus [12])	Log kill (Mus musculus [13])	Log kill (Mus musculus [14])	Log kill (Mus musculus [15])	Log kill (Mus musculus [16])	also measured
CC(Oc1cccc(Oc2cnc3ccc(Cl)cc3n2)c1)C(=O)O (stereo unspecified)														T/C (Mus musculus [1]): 100%; Activity rating (Mus musculus [2]): <0.7
O=P1(N(CCCl)CCCl)NCCCO1 (stereo unspecified)	> 2.8	4.9	2.8	> 2.8	2.8	< 0.7	1.9	> 2.8	1.9	0.7	1.9	1.9	2.8	NA (Mus musculus [3]): inactive
CC[C@]1(O)C[C@@H]2CN(CCc3c([nH]c4ccccc34)[C@@](C(=O)OC)(c3cc4c(cc3OC)N(C)[C@H]3[C@@](O)(C(=O)OC)[C@H](OC(C)=O)[C@]5(CC)C=CCN6CC[C@]43[C@@H]65)C2)C1	< 0.7	1.9	1.9	< 0.7	< 0.7	< 0.7	< 0.7	< 0.7	< 0.7	2.8	< 0.7	< 0.7	< 0.7	Log kill (Mus musculus [17]): < 0.7
CC(=O)O[C@H]1C(=O)[C@@]2(C)[C@H]([C@H](OC(=O)c3ccccc3)[C@]3(O)C[C@H](OC(=O)[C@H](O)[C@@H](NC(=O)c4ccccc4)c4ccccc4)C(C)=C1C3(C)C)[C@]1(OC(C)=O)CO[C@@H]1C[C@@H]2O	< 0.7	< 1	> 2.8	< 0.7	< 0.7	< 0.7	> 2.8	< 0.7	0.7	> 2.8	1.2	0.7	> 2.8	Log kill (Mus musculus [17]): < 0.7
CC(C#N)Oc1ccc(Oc2cnc3ccc(Cl)cc3n2)cc1 (stereo unspecified)														NA (Mus musculus [18]): inactive
Cc1ccc2ncc(Oc3ccc(OC(C)C(=O)O)cc3)nc2c1 (stereo unspecified)														Body weight loss (Mus musculus [19]): 7.1%; Body weight loss (Mus musculus [20]): 4.3%; T/C (Mus musculus [21]): 21%; T/C (Mus musculus [22]): 47%; Log kill (Mus musculus [23]): 0.38; Log kill (Mus musculus [24]): 0.63
CC(Oc1ccc(Nc2cnc3ccc(Cl)cc3n2)cc1)C(=O)O (stereo unspecified)														NA (Mus musculus [25]): inactive
CC(Oc1ccc(Sc2cnc3ccc(Cl)cc3n2)cc1)C(=O)O (stereo unspecified)														NA (Mus musculus [25]): inactive
CC(Oc1cnc2ccc(Cl)cc2n1)C(=O)O (stereo unspecified)														NA (Mus musculus [25]): inactive
CC(Oc1ccc(Oc2cnc3ccc(Cl)cc3n2)cc1)C(=O)NN (stereo unspecified)														T/C (Mus musculus [26]): 27%; Body weight loss (Mus musculus [27]): -6.5%; Log kill (Mus musculus [28]): 0.75
C[C@@H](Oc1ccc(Oc2cnc3ccc(Cl)cc3n2)cc1)C(=O)O [R(+)XK469]														Body weight loss (Mus musculus [29]): -8%; T/C (Mus musculus [30]): 2%; Activity rating (Mus musculus [31]): >2.8; Log kill (Mus musculus [32]): 2.9
COc1cccc2c1C(=O)c1c(O)c3c(c(O)c1C2=O)C[C@@](O)(C(=O)CO)C[C@@H]3O[C@H]1C[C@H](N)[C@H](O)[C@H](C)O1	> 2.8	1.9	> 2.8	0.7	< 0.7	< 0.7	2.8	> 2.8	0.7	1.9	0.7	0.7	> 2.8	Log kill (Mus musculus [33]): 2.8
CC(Oc1ccc(Oc2cnc3ccc(Cl)cc3n2)cc1)C(=O)NO (stereo unspecified)														NA (Mus musculus [34]): inactive
